≈ marks a conversion by molar mass, not a printed value.
system: Amphibalanus amphitrite; experiment: Antifouling activity against Balanus amphitrite larvae; assay type: functional; conditions: not given

SMILES	ED100
C#C/C=C\CCCC/C=C\C#CC#CCCCC#CC#C[C@@H](O)COS(=O)(=O)[O-].[Na+] [CALLYSPONGIN B]	0.25 µg/mL

same assay, conditions: Amphibalanus amphitrite; read-out: ED50 (the source's name)

SMILES	EC50
C#CC#CCCCC#CC#C/C=C\CCCC/C=C\C#C [CALLYPENTAYNE]	0.25 µg/mL (≈ 0.918 µM)
C#C/C=C\CCCC/C=C\C#CC#CCCCC#CC#C[C@H](COS(=O)(=O)[O-])OS(=O)(=O)[O-].[Na+].[Na+] [CALLYSPONGIN A]	0.13 µg/mL
C#C/C=C\CCCC#CC#CCCCCCC/C=C\C#C [CALLYTETRAYNE]	0.25 µg/mL (≈ 0.904 µM)
C#C/C=C\CCCC/C=C\C#CC#CC(O)CCC#CC#CC(O)CO (centres undefined) [CALLYTRIOL A]	1.3 µg/mL (≈ 3.73 µM)
C#C/C=C\CCCC(O)/C=C\C#CC#CCCCC#CC#CC(O)CO (centres undefined) [CALLYTRIOL B]	1.3 µg/mL (≈ 3.73 µM)
C#C/C=C\C(O)CCC/C=C\C#CC#CCCCC#CC#CC(O)CO (centres undefined) [CALLYTRIOL C]	0.13 µg/mL (≈ 0.373 µM)
C#C/C=C/C(O)CCC/C=C\C#CC#CCCCC#CC#CC(O)CO (centres undefined) [CALLYTRIOL D]	1.3 µg/mL (≈ 3.73 µM)
C#C/C=C\CCCC(O)/C=C/C#CC#CCCCC#CC#CC(O)CO (centres undefined) [CALLYTRIOL E]	0.13 µg/mL (≈ 0.373 µM)
C#C/C=C\CCCC/C=C\C#CC#CCCCC#CC#C[C@@H](O)CO [SIPHONODIOL]	0.25 µg/mL (≈ 0.752 µM)

system: Halocynthia roretzi; experiment: Induction of metamorphosis in ascidian Halocynthia roretzi; assay type: functional; conditions: not given

SMILES	ED100
C#C/C=C\CCCC/C=C\C#CC#CCCCC#CC#C[C@@H](O)COS(=O)(=O)[O-].[Na+] [CALLYSPONGIN B]	4.1 µg/mL

same assay, conditions: Halocynthia roretzi; read-out: ED50 (the source's name)

EC50	SMILES
0.63 µg/mL (≈ 1.81 µM)	C#C/C=C\CCCC(O)/C=C\C#CC#CCCCC#CC#CC(O)CO (centres undefined) [CALLYTRIOL B]
0.24 µg/mL (≈ 0.689 µM)	C#C/C=C\C(O)CCC/C=C\C#CC#CCCCC#CC#CC(O)CO (centres undefined) [CALLYTRIOL C]
0.38 µg/mL (≈ 1.09 µM)	C#C/C=C/C(O)CCC/C=C\C#CC#CCCCC#CC#CC(O)CO (centres undefined) [CALLYTRIOL D]
0.63 µg/mL (≈ 1.81 µM)	C#C/C=C\CCCC(O)/C=C/C#CC#CCCCC#CC#CC(O)CO (centres undefined) [CALLYTRIOL E]
4.5 µg/mL (≈ 13.5 µM)	C#C/C=C\CCCC/C=C\C#CC#CCCCC#CC#C[C@@H](O)CO [SIPHONODIOL]

Second part, the compound before the results:

SMILES	EC50
C#C/C=C\CCCC/C=C\C#CC#CCCCC#CC#C[C@H](COS(=O)(=O)[O-])OS(=O)(=O)[O-].[Na+].[Na+] [CALLYSPONGIN A]	3.9 µg/mL
C#C/C=C\CCCC#CC#CCCCCCC/C=C\C#C [CALLYTETRAYNE]	30 µg/mL (≈ 109 µM)
C#C/C=C\CCCC/C=C\C#CC#CC(O)CCC#CC#CC(O)CO (centres undefined) [CALLYTRIOL A]	0.43 µg/mL (≈ 1.23 µM)
